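Dose response: 5 concentrations. Exposure: 48 h. Format: 96-well plates. Endpoint: linear interpolation; highest concentration if not reached. GI50 = concentration required for 50% inhibition of growth.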 The source made the active and inactive calls. Rule as the data show it: active = GI50 up to about 1.1 µM and inactive = higher.
How the values were obtained:
Test in all cases: NCI anticancer screen, dose series, 48 h
[1] = test system: NCI-H460
[2] = test system: NCI/ADR-RES
[3] = test system: IGROV-1
[4] = test system: SNB-19
[5] = test system: COLO 205
[6] = test system: SF-295
[7] = test system: RXF 393
[8] = test system: OVCAR-4
[9] = test system: NCI-H23
[10] = test system: NCI-H522
[11] = test system: EKVX
[12] = test system: SF-539
[13] = test system: HOP-62
[14] = test system: MOLT-4
[15] = test system: Hs-578T
[16] = test system: OVCAR-5
[17] = test system: HT-29
[18] = test system: OVCAR-3
[19] = test system: MCF7
[20] = test system: CCRF-CEM

| Structure (SMILES) | GI50 [1] | GI50 [2] | GI50 [3] | GI50 [4] | GI50 [5] | GI50 [6] | GI50 [7] | GI50 [8] | GI50 [9] | GI50 [10] | GI50 [11] | GI50 [12] | GI50 [13] | GI50 [14] | GI50 [15] | GI50 [16] | GI50 [17] | GI50 [18] | GI50 [19] | GI50 [20] |
| --- | --- | --- | --- | --- | --- | --- | --- | --- | --- | --- | --- | --- | --- | --- | --- | --- | --- | --- | --- | --- |
| CC(C)(C)n1nc(C2CC2)cc1NC(=O)Nc1ccc(Cl)cc1 | > 100 µM (inactive) | > 100 µM (inactive) | > 100 µM (inactive) | > 100 µM (inactive) | > 100 µM (inactive) | > 100 µM (inactive) | > 100 µM (inactive) | > 100 µM (inactive) | > 100 µM (inactive) | > 100 µM (inactive) | > 100 µM (inactive) | > 100 µM (inactive) | > 100 µM (inactive) | > 100 µM (inactive) | > 100 µM (inactive) | > 100 µM (inactive) | > 100 µM (inactive) | > 100 µM (inactive) | > 100 µM (inactive) |  |
| COc1cc(-c2oc3c(OC)c(O)cc(O)c3c(=O)c2OC)ccc1O | 6.95 µM (inactive) | 10.8 µM (inactive) | 3.09 µM (inactive) | 41.4 µM (inactive) | 29.1 µM (inactive) | 17.5 µM (inactive) | 3.73 µM (inactive) | 8.41 µM (inactive) | 16.7 µM (inactive) | 8.17 µM (inactive) | 21.8 µM (inactive) | 5.47 µM (inactive) | 3 µM (inactive) | 4.92 µM (inactive) | 1.84 µM (inactive) | 22.3 µM (inactive) | 37.4 µM (inactive) | 2.68 µM (inactive) | 19.7 µM (inactive) | 3.12 µM (inactive) |
| CC(=O)N1CCN(C23OC4(N5CCN(C(C)=O)CC5)C5C6CC(C7C6C4C72)C53)CC1 (stereo unspecified) | > 100 µM (inactive) | > 100 µM (inactive) | > 100 µM (inactive) | > 100 µM (inactive) | > 100 µM (inactive) | > 100 µM (inactive) | > 100 µM (inactive) | > 100 µM (inactive) | > 100 µM (inactive) | > 100 µM (inactive) | > 100 µM (inactive) | > 100 µM (inactive) | > 100 µM (inactive) | > 100 µM (inactive) | > 100 µM (inactive) | > 100 µM (inactive) | > 100 µM (inactive) | > 100 µM (inactive) | > 100 µM (inactive) | > 100 µM (inactive) |
| C=CCNC(=O)NC(=O)CSC1=NC(=O)C2(NN1)c1ccccc1-c1ccccc12 | > 10 µM (inactive) | > 10 µM (inactive) | > 10 µM (inactive) | > 10 µM (inactive) | > 10 µM (inactive) | > 10 µM (inactive) | > 10 µM (inactive) | > 10 µM (inactive) | > 10 µM (inactive) | > 10 µM (inactive) | > 10 µM (inactive) | > 10 µM (inactive) | > 10 µM (inactive) | > 10 µM (inactive) | 9.51 µM (inactive) | > 10 µM (inactive) | > 10 µM (inactive) |  | > 10 µM (inactive) | > 10 µM (inactive) |
| Cc1c(-c2ccccc2)c(C#N)c2nnn(-c3ccc(Cl)cc3)c(=O)n12 | 4.83 µM (inactive) | 17.6 µM (inactive) | 32.7 µM (inactive) | > 100 µM (inactive) | 11 µM (inactive) | 7.06 µM (inactive) | 28.2 µM (inactive) | 25.8 µM (inactive) | 37 µM (inactive) | 10.9 µM (inactive) | 50.9 µM (inactive) | 20.7 µM (inactive) | 7.14 µM (inactive) |  | 71.4 µM (inactive) | > 100 µM (inactive) | 15.8 µM (inactive) | 16.4 µM (inactive) | 7.59 µM (inactive) | 18.3 µM (inactive) |
| Cn1cc(S(=O)(=O)NC(=O)Nc2ccc(Cl)cc2)c(=O)c2ccc(Cl)cc21 | > 100 µM (inactive) | 38 µM (inactive) | > 100 µM (inactive) | 87.9 µM (inactive) |  | > 100 µM (inactive) | > 100 µM (inactive) | > 100 µM (inactive) | 70 µM (inactive) | 20.9 µM (inactive) | > 100 µM (inactive) | > 100 µM (inactive) | > 100 µM (inactive) | 85.5 µM (inactive) | 72.1 µM (inactive) | > 100 µM (inactive) | > 100 µM (inactive) | > 100 µM (inactive) | > 100 µM (inactive) | 92.9 µM (inactive) |
| Cc1c(S(=O)(=O)N/C(=N\O)Nc2ccc(Cl)c(Cl)c2)sc2ccc(Cl)cc12 |  | 18.7 µM (inactive) | 17.5 µM (inactive) | 19.1 µM (inactive) | 17.9 µM (inactive) | 16 µM (inactive) | 16.9 µM (inactive) | 15.1 µM (inactive) | 17.8 µM (inactive) | 15.9 µM (inactive) | 12.9 µM (inactive) | 23 µM (inactive) | 18.5 µM (inactive) | 34.1 µM (inactive) | 28.6 µM (inactive) | 21.6 µM (inactive) | 14.4 µM (inactive) | 14.5 µM (inactive) | 24.9 µM (inactive) | 26.8 µM (inactive) |
| Cc1ccc(/C=C2\NC(=S)NC2=O)cc1 |  | > 100 µM (inactive) | > 100 µM (inactive) | > 100 µM (inactive) | > 100 µM (inactive) | > 100 µM (inactive) | > 100 µM (inactive) | 62.8 µM (inactive) | > 100 µM (inactive) | > 100 µM (inactive) | 62.8 µM (inactive) | > 100 µM (inactive) | > 100 µM (inactive) | > 100 µM (inactive) | > 100 µM (inactive) | > 100 µM (inactive) | > 100 µM (inactive) | > 100 µM (inactive) | > 100 µM (inactive) | > 100 µM (inactive) |
| O=C1NC(N2CCCCC2)=N/C1=C\c1ccc(Cl)cc1 |  | 22 µM (inactive) | 25.9 µM (inactive) | 37 µM (inactive) | 74.5 µM (inactive) | 60.5 µM (inactive) | > 100 µM (inactive) | 68.4 µM (inactive) | 37.2 µM (inactive) | 21 µM (inactive) | 26.3 µM (inactive) | 94 µM (inactive) | 46.7 µM (inactive) | > 100 µM (inactive) | 28.5 µM (inactive) | > 100 µM (inactive) | 16.6 µM (inactive) | 26.4 µM (inactive) | 47.2 µM (inactive) | 39.7 µM (inactive) |
| N=c1oc2ccccc2cc1-c1nc2ccccc2c(=O)[nH]1 | 64.7 µM (inactive) | 72.6 µM (inactive) | 6 µM (inactive) | 30.1 µM (inactive) | > 100 µM (inactive) | 32.7 µM (inactive) | 31.4 µM (inactive) | > 100 µM (inactive) |  | 14.7 µM (inactive) | 35.6 µM (inactive) | 60.4 µM (inactive) | 22.7 µM (inactive) | > 100 µM (inactive) | 23.2 µM (inactive) | > 100 µM (inactive) | 39.1 µM (inactive) |  | 19.5 µM (inactive) | 79.4 µM (inactive) |
| CN(C)C1(C(=O)O)CC1 | > 100 µM (inactive) | > 100 µM (inactive) | > 100 µM (inactive) | > 100 µM (inactive) |  | > 100 µM (inactive) | > 100 µM (inactive) | > 100 µM (inactive) | > 100 µM (inactive) | > 100 µM (inactive) | > 100 µM (inactive) | > 100 µM (inactive) | > 100 µM (inactive) | > 100 µM (inactive) | > 100 µM (inactive) | > 100 µM (inactive) | > 100 µM (inactive) | > 100 µM (inactive) | > 100 µM (inactive) | > 100 µM (inactive) |
| CSc1ncc2c(n1)-c1ccccc1OC2N1CCOCC1 (stereo unspecified) | 41.5 µM (inactive) | 57.1 µM (inactive) | 39.4 µM (inactive) | 68.2 µM (inactive) | > 100 µM (inactive) | 49.7 µM (inactive) | 53.8 µM (inactive) | 21.7 µM (inactive) | > 100 µM (inactive) | 34.4 µM (inactive) | 76 µM (inactive) | > 100 µM (inactive) |  | 43.3 µM (inactive) | 61.2 µM (inactive) | > 100 µM (inactive) | 90.4 µM (inactive) | 56.2 µM (inactive) | 55.8 µM (inactive) | 47.1 µM (inactive) |
| CCCCSC1=N/C(=C\c2ccccc2O)C(Cl)=N1 | > 100 µM (inactive) | > 100 µM (inactive) | > 100 µM (inactive) | > 100 µM (inactive) | > 100 µM (inactive) | > 100 µM (inactive) | > 100 µM (inactive) | > 100 µM (inactive) | > 100 µM (inactive) | > 100 µM (inactive) | > 100 µM (inactive) | > 100 µM (inactive) | > 100 µM (inactive) | > 100 µM (inactive) | > 100 µM (inactive) | > 100 µM (inactive) | > 100 µM (inactive) | > 100 µM (inactive) | > 100 µM (inactive) |  |
| CNC(C#N)c1ccc(OC)cc1 (stereo unspecified) | > 100 µM (inactive) | > 100 µM (inactive) | > 100 µM (inactive) | > 100 µM (inactive) | 71.3 µM (inactive) | > 100 µM (inactive) | > 100 µM (inactive) | > 100 µM (inactive) | > 100 µM (inactive) | 75.5 µM (inactive) | > 100 µM (inactive) | > 100 µM (inactive) |  | 43.7 µM (inactive) | > 100 µM (inactive) | > 100 µM (inactive) | 61.1 µM (inactive) | 61 µM (inactive) | > 100 µM (inactive) | 53.3 µM (inactive) |
| COc1cc2c3c(n(C)c(=O)c2cc1OC)-c1cc2c(cc1/C3=C\CCCI)OCO2 | 5.42 µM (inactive) | 18.1 µM (inactive) | 1.58 µM (inactive) | 13.7 µM (inactive) | 18.1 µM (inactive) | 0.904 µM (active) | 10.6 µM (inactive) |  | 12.2 µM (inactive) | 6.75 µM (inactive) | 30.1 µM (inactive) | 3.94 µM (inactive) | 10 µM (inactive) | 0.238 µM (active) | 4.11 µM (inactive) | > 4.65 µM (inactive) | 20.4 µM (inactive) | > 61.1 µM (inactive) | 2.91 µM (inactive) | 1.29 µM (inactive) |

— ChEMBL document CHEMBL1201862, “PubChem BioAssay data set” (2004)
